In series [1] the target is T1, β5i (i-20S) (Homo sapiens, UniProt P20618+P28062).
T1 construct: purchased Boston Biochem
In words: Kinetics studies of modality of inhibition against β5i. The class given is biochemical. How it is done: Data as in d are shown in double reciprocal plots in e, and data from f in g. […] Data are means ± SEM of three independent experiments […]
With increasing concentrations of PKS21004, both V max and K M decreased (Fig. 1d–g and Supplementary Fig. 1). […] This class thus joins a growing list of noncompetitive proteasome inhibitors[5],[30].
Supplementary Figure 11. Inhibition kinetics of PKS21221 against i-20S β5i. (A) Steady state velocities of the Ac-ANW-AMC hydrolysis at 10, 15, 25, 35 µM by i-20S β5i (0.4 nM) in the presence of PKS21221 at indicated concentrations were determined at 37 °C and plotted by RFU versus substrate concentration (A); values of KM, Ki and α were estimated by PRISM using equation V = (Vmax / (1 + I / (α*Ki))) * S / (KM * (1+ I / Ki) / (1 + I / (α*Ki)) + S); (B) Lineweaver-Burk plot of the data in (A). (C) Plot of KM versus concentrations of PKS21221 indicates a mixed type inhibition. (D) Plot of Vmax versus concentrations of PKS21221.
(1 picture or pasted object on this page, not shown here)

The target of series [2] is T2, β5c in HepG2 cells (Homo sapiens, UniProt P20618+P28074).
T2 construct: host or cells: HepG2
In words: Intracellular β5c activity in HepG2 cells, suc-LLVY-luciferin. The class given is cell-based. How it is done:
To determine if this class of inhibitors is cell penetrable, we treated the B-cell lymphoma line Karpas 1106P[28] (expressing a high proportion of i-20S over c-20S) with PKS21221 before incubation with either (Ac-ANW)2-R110 (a specific substrate of β5i) or suc-LLVY-luciferin (a substrate of β5) (Fig. 4a). […] No β5i activity was detected in HepG2 cells using (Ac-ANW)2-R110 as a substrate.
Cell viability was determined by CellTiter-glo.
Intracellular proteasomal activity and inhibition assay were performed as reported. Karpas 1106P (80,000 cells per well) were plated and incubated with compound at indicated concentrations for 1 h at 37 °C. The activity of the overall β5 activity including β5i and β5c in each was measured in situ after compound removal with Proteasome-Glo assay kit according to manufacturer’s instructions. Luminescence was recorded on a SpectraMax M5 plate reader. Relative percentage of RLU was used to calculate the IC50s.

Series [3] has as its system MM.1S cells. In words: Cytotoxicity, CellTiter-glo, MM.1S. To be noted: 72 h. The class given is cell-based. How it is done:
Fig. 4 Intracellular proteasome inhibition by PKS21221 and its cytotoxicity against transformed cell lines. a Karpas 1106P lymphoma cells (white and black symbols) or HepG2 cells (blue symbols) were treated with PKS21221 for 2 h at the concentrations indicated prior to incubation with substrate (Ac-ANW)2R110 for β5i (Karpas cells) or suc-LLVY-luciferin for β5 (Karpas cells and HepG2 cells). […] Cell viability was determined by CellTiter-glo. Data are means ± SEM of three to four independent experiments
We incubated MM.1S, RPMI 8226, Karpas and HepG2 cells with PKS21221 at different concentrations, and determined cell viability after 72 h (Fig. 4b).
We used Karpas 1106P B lymphoma cell line (Cat. No. 06072607, Aldrich)[15],[16],[52], HepG2 (HB-8065, ATCC), MM.1S (Cat. No. CRL-2974, ATCC). Cells were cultured at 37 °C in a humidified air/5% CO2 atmosphere in medium supplemented with 10% fetal bovine serum, except for the medium for Karpas 1106P cells which contained 20% fetal bovine serum, and 100 units per ml penicillin, 100 μg per ml streptomycin in RPMI 1640 medium. Karpas 1106P was used at 80,000 cells per well, MM.1S at 100,000 cells per well, and HepG2 at 12,000 cells per well. […] Viable cells were counted using Cell-titer Glo assay kit. EC50s were calculated using PRISM (Graphpad).

For series [4], the system named is CD19+CD38+CD27+ ASCs. In words: Survival and apoptosis of differentiated antibody-secreting cells (ASCs) from PBMC, Annexin V/7-AAD. The class given is cell-based, human. How it is done: (§1) The immunoproteasome plays important roles in T cell differentiation and proliferation and dendritic cell activation and maturation[14],[20],[24]. However, its role in B cell differentiation is not well understood. […] Differentiated ASCs were then exposed to PKS21221 at indicated concentrations and cell survival was determined with Annexin V and 7-aminoactinomycin D (7-AAD) at three-time points (12-h, 24-h, and 48-h after treatment). […] In addition, the cytotoxicity of PKS21221 to different cell populations in PBMC was examined and compared to the cytotoxicity of bortezomib. PBMCs were incubated with PKS21221 or bortezomib, and the viability was assessed in T cells (CD3^+), B cells (CD19^+), monocytes (CD14^+) and dendritic cells (CD3^−CD19^−CD14^−CD16^−CD11c^+HLA-DR^+), respectively (Supplementary Fig. 13b–e).
PBMCs were cultured with or without IL-2/R848 for 5 days, followed by 12-h incubation with PKS21221 at different concentrations. a Representative flow cytometry plots of cells treated with IL-2 and R848 in the presence and absence of PKS21221. […] Annexin V^+7-AAD^− cells were referred as “Early apoptosis” population, and Annexin V^+7-AAD^+ cells were referred as “Dead” population. d Percentage of early apoptotic ASCs (left) and dead ASCs (right), after 12-h incubation with PKS21221.
Human peripheral blood samples were obtained from five different healthy volunteers (BWH Specimen Bank). Peripheral blood mononuclear cells (PBMCs) were isolated by density gradient centrifugation using Lymphoprep (StemCell Technologies). PBMCs were cultured at 1.5 × 10^6 cells per mL in RPMI 1640 media (Lonza), supplemented with 10% human serum (GemCell) (10% HS-RPMI), recombinant human IL-2 10 ng per mL (or 100 U per ml, BioLegend) and R848 1 µg per mL (Cayman Chemicals) for 5 days, at 37 °C, 5% CO2. PKS21221 in DMSO, or DMSO only for control, was added to the culture media on day 5, and cells were incubated for additional 12, 24, and 48 h.

Series [5] has as its system PBMCs. The series can be described thus: Viability of total PBMCs in ASC differentiation culture (7-AAD). The class given is cell-based. The procedure:
as §1
(§2) PBMCs were cultured with or without IL-2/R848 for 5 days, followed by 12-h incubation with PKS21221 at different concentrations. a Representative flow cytometry plots of cells treated with IL-2 and R848 in the presence and absence of PKS21221. […] Annexin V^+7-AAD^− cells were referred as “Early apoptosis” population, and Annexin V^+7-AAD^+ cells were referred as “Dead” population. d Percentage of early apoptotic ASCs (left) and dead ASCs (right), after 12-h incubation with PKS21221. […]

In series [6] the test system is CD19+ non-ASCs. The series can be described thus: Apoptosis and viability of CD19+ non-ASCs in ASC differentiation culture. The class given is cell-based. How it is done: as §1, §2
The target of series [7] is β2i (Homo sapiens, UniProt P40306). In words: IC50 against β2i of human immunoproteasome (Z-VLR-AMC). The following applies: read-out: IC50 2i - VLR (β2i); substrate Z-VLR-AMC.
Procedure: IC50s of all compounds against β5i and β5c (Table 2) and against β1i, β2i, β1c, and β2c (Supplementary Table 1) were determined following reported methods[8].

Entries after “also recorded” stand apart in the source; their conditions may differ.

As a reminder, the IC50 is the point on the concentration scale where inhibition reaches its midpoint. For orientation: EC50 means the concentration at which the effect is half-maximal. Low values mean an effect from little substance, high ones a need for much substance. With `Cc1ccc(S(=O)(=O)N[C@@H](CC(=O)NC(C)(C)C)C(=O)NCCNC(=O)c2cc(-c3ccccc3F)ccc2F)cc1` [PKS21221], the “α for β5i (αi-20S)” value in series [1] is recorded as 0.26. The “modality of inhibition of β5i” value in series [1] (versus substrate) is “noncompetitive”. In addition, in series [2], 1.83 ± 0.138 µM corresponded to half-maximal inhibition (IC50). The compound also registered an EC50 in series [3] of 0.078 ± 0.03 µM. Also, the “percentage of viable ASC” value in series [4] (12-h, 24-h, 48-h after treatment) is “decreased with PKS21221 treatment in a dose- and time-dependent manner”. The “ASC percentage in ASC differentiating culture” value in series [4] (added for 12 hours on Day 5) is “decreased the percentage of”. Moreover, the “overall viability of PBMCs” value in series [5] was “not affected; also recorded: did not affect overall viability”. For the same compound, in series [6], the “apoptosis of CD19+ non-ASCs” value is listed as “slightly enhanced” and the “viability of CD19+ non-ASCs” value is given as “did not affect viability”. In series [7], the 50% inhibitory concentration (IC50) was above 50 µM.

For the origin of these results see article PMC5700161, “Structure of human immunoproteasome with a reversible and noncompetitive inhibitor that selectively inhibits activated lymphocytes” (Nature Communications, 2017).
